From US5622933A, “Multiple branch peptide constructions for use against HIV” (priority 1993, dated 1997)
“And” between values parts separate entries of the source, which are not always exact repeats. Equal entries are not always repeated. Where two headings read alike, the source gives them in different places. Ends that are not written are not given here.

Tests used:
HIV-1 (IIIB) = format: cell-based; details: for number of syncytia (HIV-1 induced cell fusion): 24 hours
Description: 50×10^3 8E5 cells chronically infected with a RT-deficient HIV-I (IIIB) isolate, were co-cultivated with 150×10^3 phytohemagglutinin (PHA) stimulated human peripheral blood lymphocytes (PBLs) in the presence of the indicated peptide in 96-well plates. The MBPCs used are described by the peptides attached, and the number thereof, to a core lysine matrix, which is designated HLC. All amino acids used for this experiment were in dextro form.

HIV-1 (89.6) = assay: Infection of and syncytia formation in human primary macrophages; format: cell-based; details: 5×10^-5 M; 10,000 TCID50
Procedure: MBPCs were also evaluated for their ability to block the infection of human primary macrophages by a highly cytopathic macrophage-tropic isolate, HIV-1 (89.6). Mononuclear cells were isolated from leukophoresis units enriched for monocytes by Ficoll-Hypaque density separation. Macrophages were purified by adherence to plastic in RPMI 1640 supplemented with 10% fetal calf serum and 5% human AB serum. […] 5×10^5 cells were treated for 45 minutes with the indicated MBPC at concentrations of 5×10^-5 M and subsequently exposed to 10,000 TCID50 of the macrophage-tropic isolate HIV (89.6). […] After thorough washing, the cells were fed again with medium and analyzed for HIV-1 p24^gag production and syncytia formation 4 days post-infection.

HIV-1Lai = assay: Syncytia formation blockage (chronically infected cells + uninfected Molt-4 cells); format: cell-based; design: key: -: The presence of syncytia is indicated by + signs, allocated in approximate proportion to the quantities counted; The presence of syncytia is indicated by + signs, allocated in approximate proportion to the quantities counted; ++: The presence of syncytia is indicated by + signs, allocated in approximate proportion to the quantities counted; +++: The presence of syncytia is indicated by + signs, allocated in approximate proportion to the quantities counted; ++++: The presence of syncytia is indicated by + signs, allocated in approximate proportion to the quantities counted
Procedure: (§1) CEM or C8166 cells were chronically infected with HIV-1 Lai or HIV-2 Rod, or HIV-1MN, respectively. Infected cells (1×10^4) were incubated for 2 hours with various concentrations of MBPCs in 96-well plates. Uninfected Molt-4 cells (4×10^4) were then added in […]. Syncytia were counted after 18 hours at 37° C.

HIV-1MN = assay: as above; format: cell-based; design: key: -: The presence of syncytia is indicated by + signs, allocated in approximate proportion to the quantities counted; The presence of syncytia is indicated by + signs, allocated in approximate proportion to the quantities counted; ++: The presence of syncytia is indicated by + signs, allocated in approximate proportion to the quantities counted; +++: The presence of syncytia is indicated by + signs, allocated in approximate proportion to the quantities counted; ++++: The presence of syncytia is indicated by + signs, allocated in approximate proportion to the quantities counted
Procedure: as §1

HIV-2Rod = assay: as above; format: cell-based; design: key: -: The presence of syncytia is indicated by + signs, allocated in approximate proportion to the quantities counted; The presence of syncytia is indicated by + signs, allocated in approximate proportion to the quantities counted; ++: The presence of syncytia is indicated by + signs, allocated in approximate proportion to the quantities counted; +++: The presence of syncytia is indicated by + signs, allocated in approximate proportion to the quantities counted; ++++: The presence of syncytia is indicated by + signs, allocated in approximate proportion to the quantities counted
Procedure: as §1

8E5 cells = assay: Toxicity in the cell fusion test (MTT assay or trypan blue exclusion); format: cell-based; details: 5 × 10^-5 M
C57/BL6 black mice = assay: Immunogenicity in mice (serum ELISA for anti-MBPC3 antibody); format: in vivo, mouse; details: coat GPGRAF monomer 10 μg/ml, listed as Mo
Procedure: The injection route was intraperitoneal. The blood samples were collected by sub-orbital eye punction. The blood samples were left for 1 hour at 37° C., then overnight at 4° C., and the supernatants (serum samples) thus obtained were separated from the pellets. Sera were tested by ELISA, looking for specific anti-MBPC3 antibody.
(§2) […] After saturation with 400 μL of casein (5 g/100 ml), different serum dilutions were added for 2 hours at 37° C. The controls were sera from non-immunized rabbits and mice. After rinsing (5×), 50 μl of 1:5000 of peroxidase-labeled swine anti-rabbit IgG or anti-mouse IgG (Dakopatts, Copenhagen, Denmark) were added for 1 hour at 37° C. After further rinsing (5×), 100 μl of ortho-phenylenediamine were added for 30 min in the dark at room temperature. The reaction was stopped by adding 50 μl of 4N sulfuric acid, and optical density (OD) ratios were determined at 492/620 nm.

New Zealand rabbits = assay: Immunogenicity in rabbits (serum ELISA for anti MBPC.3 antibodies); format: in vivo, rabbit; details: coat GPGRAF monomer 10 μg/ml
Procedure: […] This procedure was repeated subcutaneously with incomplete Freud's adjuvant on days 30, 60, 90 and 120. Sera were tested by ELISA, looking for specific anti MBPC.3 antibodies. Data presented here is from the last serum samples (120+7 days).
as §2

[Ac-GPGRAF]8 -MLC (also: eight copies on MLC (multibranched lysine core)) [N-terminal acetylation]
inhibition of syncytia formation / cell fusion, in words (HIV-1 (IIIB)): significant loss of activity | number of syncytia (HIV-1 induced cell fusion) (HIV-1 (IIIB); 5 × 10^-5 M): - (- indicates the total absence of syncytia in the well) | number of syncytia (HIV-1 induced cell fusion) (HIV-1 (IIIB); 5 × 10^-6 M): +++ | number of syncytia (HIV-1 induced cell fusion) (HIV-1 (IIIB); 5 × 10^-7 M): +++

[GPGRAF]8 -MLCD
number of syncytia (HIV-1 induced cell fusion) (HIV-1 (IIIB); 5 × 10^-5 M): +++ | number of syncytia (HIV-1 induced cell fusion) (HIV-1 (IIIB); 5 × 10^-6 M): +++ | number of syncytia (HIV-1 induced cell fusion) (HIV-1 (IIIB); 5 × 10^-7 M): +++ | inhibition of macrophage infection, in words (HIV-1 (89.6)): significantly less active than [GPGRAF]8 -MLC

[GPGR]8 -MLC
inhibition of syncytia formation / cell fusion, in words (HIV-1 (IIIB)): did not inhibit cell fusion | number of syncytia (HIV-1 induced cell fusion) (HIV-1 (IIIB); 5 × 10^-5 M): +++ | number of syncytia (HIV-1 induced cell fusion) (HIV-1 (IIIB); 5 × 10^-6 M): +++ | number of syncytia (HIV-1 induced cell fusion) (HIV-1 (IIIB); 5 × 10^-7 M): +++

(IGPGRAF)4 -(K)2 -K-βA-OH (also: four copies on lysine core (K)2-K-βA-OH) [MBPC.4]
Syncytia formation (HIV-1Lai; MBPC Conc. 5 × 10^-6 M): +++ | Syncytia formation (HIV-1Lai; MBPC Conc. 10^-6 M): ++++ | Syncytia formation (HIV-1Lai; MBPC Conc. 10^-7 M): ++++ | Syncytia formation (HIV-1MN; MBPC Conc. 5 × 10^-6 M): ++++ | Syncytia formation (HIV-1MN; MBPC Conc. 10^-6 M): ++++ | Syncytia formation (HIV-1MN; MBPC Conc. 10^-7 M): +++ | Syncytia formation (HIV-2Rod; MBPC Conc. 5 × 10^-6 M): ++++ | Syncytia formation (HIV-2Rod; MBPC Conc. 10^-6 M): ++++ | Syncytia formation (HIV-2Rod; MBPC Conc. 10^-7 M): ++++

[GPGRA]8 -MLC
inhibition of syncytia formation / cell fusion, in words (HIV-1 (IIIB)): did not inhibit cell fusion | number of syncytia (HIV-1 induced cell fusion) (HIV-1 (IIIB); 5 × 10^-5 M): +++ | number of syncytia (HIV-1 induced cell fusion) (HIV-1 (IIIB); 5 × 10^-6 M): +++ | number of syncytia (HIV-1 induced cell fusion) (HIV-1 (IIIB); 5 × 10^-7 M): +++

RAFVTIGK [RAFVTIGK (SEQ ID NO:6), reference compound]
number of syncytia (HIV-1 induced cell fusion) (HIV-1 (IIIB); 5 × 10^-5 M): - (- indicates the total absence of syncytia in the well) | number of syncytia (HIV-1 induced cell fusion) (HIV-1 (IIIB); 5 × 10^-6 M): +++ | number of syncytia (HIV-1 induced cell fusion) (HIV-1 (IIIB); 5 × 10^-7 M): +++

[RKSIHKGPGRAFYT]4 -MLC (also: tetrameric multibranched MLC construct)
number of syncytia (HIV-1 induced cell fusion) (HIV-1 (IIIB); 5 × 10^-6 M): - (- indicates the total absence of syncytia in the well) | number of syncytia (HIV-1 induced cell fusion) (HIV-1 (IIIB); 5 × 10^-7 M): +++ | Toxicity (8E5 cells): Toxic

[GPG(R)D AF]8 -MLC
number of syncytia (HIV-1 induced cell fusion) (HIV-1 (IIIB); 5 × 10^-6 M): - (- indicates the total absence of syncytia in the well) | number of syncytia (HIV-1 induced cell fusion) (HIV-1 (IIIB); 5 × 10^-7 M): +++ | inhibition of macrophage infection, in words (HIV-1 (89.6)): significantly less active than [GPGRAF]8 -MLC

GPGRAF [Mono.3, GPGRAF, reference compound]
optical density (OD) ratio 492/620 nm (×10^3) (C57/BL6 black mice; plate 1, mouse serum 10^-2): 1224 and 1135 | optical density (OD) ratio 492/620 nm (×10^3) (C57/BL6 black mice; plate 1, mouse serum 10^-3): 310 and 287 | optical density (OD) ratio 492/620 nm (×10^3) (C57/BL6 black mice; plate 1, mouse serum 10^-4): 104 and 185 | optical density (OD) ratio 492/620 nm (×10^3) (C57/BL6 black mice; plate 2, mouse serum 10^-2): 1539 and 1575 | optical density (OD) ratio 492/620 nm (×10^3) (C57/BL6 black mice; plate 2, mouse serum 10^-3): 342 and 335 | optical density (OD) ratio 492/620 nm (×10^3) (C57/BL6 black mice; plate 2, mouse serum 10^-4): 95 and 126 | optical density (OD) ratio 492/620 nm (×10^3) (C57/BL6 black mice; plate 4, mouse serum 10^-2): 1231 and 1317 | optical density (OD) ratio 492/620 nm (×10^3) (C57/BL6 black mice; plate 4, mouse serum 10^-3): 380 and 386 | optical density (OD) ratio 492/620 nm (×10^3) (C57/BL6 black mice; plate 4, mouse serum 10^-4): 123 and 122 | optical density (OD) ratio 492/620 nm (×10^3) (New Zealand rabbits; plate 1, rabbit serum 10^-2): 2000 | optical density (OD) ratio 492/620 nm (×10^3) (New Zealand rabbits; plate 1, rabbit serum 10^-3): 2000 | optical density (OD) ratio 492/620 nm (×10^3) (New Zealand rabbits; plate 1, rabbit serum 10^-4, listed as Mo): 677 and 725 | optical density (OD) ratio 492/620 nm (×10^3) (New Zealand rabbits; plate 2, rabbit serum 10^-2): 2000 | optical density (OD) ratio 492/620 nm (×10^3) (New Zealand rabbits; plate 2, rabbit serum 10^-3, listed as Mo): 2000 and 1909 | optical density (OD) ratio 492/620 nm (×10^3) (New Zealand rabbits; plate 2, rabbit serum 10^-4, listed as Mo): 588 and 625 | optical density (OD) ratio 492/620 nm (×10^3) (New Zealand rabbits; plate 4, rabbit serum 10^-2): 811 | optical density (OD) ratio 492/620 nm (×10^3) (New Zealand rabbits; plate 4, rabbit serum 10^-3, listed as Mo): 245 and 194

[RKSIHTGPGRAFYT]4 -MLC (also: tetrameric multibranched MLC construct)
number of syncytia (HIV-1 induced cell fusion) (HIV-1 (IIIB); 5 × 10^-6 M): - (- indicates the total absence of syncytia in the well) | number of syncytia (HIV-1 induced cell fusion) (HIV-1 (IIIB); 5 × 10^-7 M): +++ | Toxicity (8E5 cells): Toxic

[IGPGRAF]8 -MLC (also: octameric multibranched MLC construct)
inhibition of syncytia formation / cell fusion, in words (HIV-1 (IIIB)): significant loss of activity | number of syncytia (HIV-1 induced cell fusion) (HIV-1 (IIIB); 5 × 10^-5 M): - (- indicates the total absence of syncytia in the well) | number of syncytia (HIV-1 induced cell fusion) (HIV-1 (IIIB); 5 × 10^-6 M): ± | number of syncytia (HIV-1 induced cell fusion) (HIV-1 (IIIB); 5 × 10^-7 M): +++
